Test results published in ChEMBL document CHEMBL4725311, “Discovery of potent, orally bioavailable in vivo efficacious antagonists of the TLR7/8 pathway” (Bioorg Med Chem Lett, 2020).

Molecular target: T1, Toll-like receptor 7 (Mus musculus, UniProt P58681)
T1 sequence (P58681 whole entry): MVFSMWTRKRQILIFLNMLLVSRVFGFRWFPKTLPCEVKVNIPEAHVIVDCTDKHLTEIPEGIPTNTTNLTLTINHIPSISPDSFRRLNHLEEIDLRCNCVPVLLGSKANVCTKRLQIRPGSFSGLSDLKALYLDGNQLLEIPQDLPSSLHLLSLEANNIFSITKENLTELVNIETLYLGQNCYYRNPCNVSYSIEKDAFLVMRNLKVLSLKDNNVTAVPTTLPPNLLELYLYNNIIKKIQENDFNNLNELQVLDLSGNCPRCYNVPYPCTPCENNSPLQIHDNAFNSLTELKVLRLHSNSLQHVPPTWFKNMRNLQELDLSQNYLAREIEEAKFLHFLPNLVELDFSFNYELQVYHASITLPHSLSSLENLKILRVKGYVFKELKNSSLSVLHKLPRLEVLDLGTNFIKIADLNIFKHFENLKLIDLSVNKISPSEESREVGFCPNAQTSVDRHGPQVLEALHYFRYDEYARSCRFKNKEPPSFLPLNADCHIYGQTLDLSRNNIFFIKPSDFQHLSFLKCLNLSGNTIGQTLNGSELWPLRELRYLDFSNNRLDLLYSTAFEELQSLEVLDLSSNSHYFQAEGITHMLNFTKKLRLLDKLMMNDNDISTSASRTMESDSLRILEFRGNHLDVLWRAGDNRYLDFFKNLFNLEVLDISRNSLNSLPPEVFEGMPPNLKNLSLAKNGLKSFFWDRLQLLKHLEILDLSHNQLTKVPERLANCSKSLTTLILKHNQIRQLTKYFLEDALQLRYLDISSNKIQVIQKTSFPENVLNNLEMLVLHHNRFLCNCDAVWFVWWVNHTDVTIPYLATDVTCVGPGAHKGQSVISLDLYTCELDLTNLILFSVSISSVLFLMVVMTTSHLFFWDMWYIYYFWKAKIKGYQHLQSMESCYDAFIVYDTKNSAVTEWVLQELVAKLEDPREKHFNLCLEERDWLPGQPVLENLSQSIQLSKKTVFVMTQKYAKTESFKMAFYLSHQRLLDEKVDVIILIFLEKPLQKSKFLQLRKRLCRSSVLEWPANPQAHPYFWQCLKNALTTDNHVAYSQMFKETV
Experiment: Antagonist activity at TLR7 in mouse splenocytes assessed as inhibition of ssRNA40-induced IL6 production
Assay type: cell-based, Splenocyte
Details: not given

SMILES	IC50 [nM]
Cc1cc(-c2ccc(OCC34CCC(N)(CC3)CC4)c(F)c2)c2cnc(N)nn12	93
Cn1nc(-c2ccc(OCC3C[C@H]4CC[C@@H](C3)N4)c(F)c2)c2cnc(N)nc21 (stereo partly drawn)	120

More lines, now with the values ahead:

IC50 [nM]	SMILES
150	Cn1nc(-c2ccc(OC[C@H]3CC[C@@H](N)CC3)c(F)c2)c2cnc(N)nc21
110	Cn1nc(-c2ccc(OC[C@H]3CC[C@H](N)CC3)c(F)c2)c2cnc(N)nc21

Molecular target: T2, Toll-like receptor 9 (Mus musculus, UniProt Q9EQU3)
T2 sequence (Q9EQU3 whole entry): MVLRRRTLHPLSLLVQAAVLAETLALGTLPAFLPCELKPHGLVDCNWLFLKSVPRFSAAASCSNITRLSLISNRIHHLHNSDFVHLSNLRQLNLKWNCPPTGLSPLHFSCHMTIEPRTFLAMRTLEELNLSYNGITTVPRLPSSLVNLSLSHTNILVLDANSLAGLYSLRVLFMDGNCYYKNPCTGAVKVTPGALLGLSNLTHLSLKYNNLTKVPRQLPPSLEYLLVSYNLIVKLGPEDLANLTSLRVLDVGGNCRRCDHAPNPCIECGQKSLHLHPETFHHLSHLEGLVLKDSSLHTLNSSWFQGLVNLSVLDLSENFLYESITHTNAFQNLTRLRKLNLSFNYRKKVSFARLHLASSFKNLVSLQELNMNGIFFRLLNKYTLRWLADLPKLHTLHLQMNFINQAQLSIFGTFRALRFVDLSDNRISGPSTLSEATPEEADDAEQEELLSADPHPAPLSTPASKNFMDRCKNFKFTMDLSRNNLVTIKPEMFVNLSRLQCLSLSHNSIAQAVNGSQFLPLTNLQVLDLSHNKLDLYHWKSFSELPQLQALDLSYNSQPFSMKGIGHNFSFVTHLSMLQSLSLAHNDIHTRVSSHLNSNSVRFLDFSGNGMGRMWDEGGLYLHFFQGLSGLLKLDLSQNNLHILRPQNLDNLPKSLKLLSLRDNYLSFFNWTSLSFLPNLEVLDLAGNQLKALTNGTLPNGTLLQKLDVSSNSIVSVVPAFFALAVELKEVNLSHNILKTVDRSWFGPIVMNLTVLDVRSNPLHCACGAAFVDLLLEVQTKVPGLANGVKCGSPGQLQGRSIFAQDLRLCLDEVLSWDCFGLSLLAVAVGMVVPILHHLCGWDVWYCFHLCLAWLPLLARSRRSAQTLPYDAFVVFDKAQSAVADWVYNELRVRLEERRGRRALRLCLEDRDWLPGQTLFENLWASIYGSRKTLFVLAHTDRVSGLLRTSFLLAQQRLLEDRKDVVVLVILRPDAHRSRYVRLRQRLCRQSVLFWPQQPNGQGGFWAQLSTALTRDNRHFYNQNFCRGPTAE
Experiment: Antagonist activity at TLR9 in mouse splenocytes assessed as inhibition of CpG1585-induced IL6 production
Assay type: cell-based, Splenocyte
Details: not given

SMILES	IC50 [nM]
Cc1cc(-c2ccc(OCC34CCC(N)(CC3)CC4)c(F)c2)c2cnc(N)nn12	460
Cn1nc(-c2ccc(OCC3C[C@H]4CC[C@@H](C3)N4)c(F)c2)c2cnc(N)nc21 (stereo partly drawn)	1200

Next, values leading:

IC50 [nM]	SMILES
1200	Cn1nc(-c2ccc(OCC3CC4(CNC4)C3)c(F)c2)c2cnc(N)nc21
1200	Cn1nc(-c2ccc(OC[C@H]3CC[C@@H](N)CC3)c(F)c2)c2cnc(N)nc21
1900	Cn1nc(-c2ccc(OC[C@H]3CC[C@H](N)CC3)c(F)c2)c2cnc(N)nc21

Molecular target: T3, Toll-like receptor 9 (Homo sapiens, UniProt Q9NR96)
T3 sequence (Q9NR96 whole entry): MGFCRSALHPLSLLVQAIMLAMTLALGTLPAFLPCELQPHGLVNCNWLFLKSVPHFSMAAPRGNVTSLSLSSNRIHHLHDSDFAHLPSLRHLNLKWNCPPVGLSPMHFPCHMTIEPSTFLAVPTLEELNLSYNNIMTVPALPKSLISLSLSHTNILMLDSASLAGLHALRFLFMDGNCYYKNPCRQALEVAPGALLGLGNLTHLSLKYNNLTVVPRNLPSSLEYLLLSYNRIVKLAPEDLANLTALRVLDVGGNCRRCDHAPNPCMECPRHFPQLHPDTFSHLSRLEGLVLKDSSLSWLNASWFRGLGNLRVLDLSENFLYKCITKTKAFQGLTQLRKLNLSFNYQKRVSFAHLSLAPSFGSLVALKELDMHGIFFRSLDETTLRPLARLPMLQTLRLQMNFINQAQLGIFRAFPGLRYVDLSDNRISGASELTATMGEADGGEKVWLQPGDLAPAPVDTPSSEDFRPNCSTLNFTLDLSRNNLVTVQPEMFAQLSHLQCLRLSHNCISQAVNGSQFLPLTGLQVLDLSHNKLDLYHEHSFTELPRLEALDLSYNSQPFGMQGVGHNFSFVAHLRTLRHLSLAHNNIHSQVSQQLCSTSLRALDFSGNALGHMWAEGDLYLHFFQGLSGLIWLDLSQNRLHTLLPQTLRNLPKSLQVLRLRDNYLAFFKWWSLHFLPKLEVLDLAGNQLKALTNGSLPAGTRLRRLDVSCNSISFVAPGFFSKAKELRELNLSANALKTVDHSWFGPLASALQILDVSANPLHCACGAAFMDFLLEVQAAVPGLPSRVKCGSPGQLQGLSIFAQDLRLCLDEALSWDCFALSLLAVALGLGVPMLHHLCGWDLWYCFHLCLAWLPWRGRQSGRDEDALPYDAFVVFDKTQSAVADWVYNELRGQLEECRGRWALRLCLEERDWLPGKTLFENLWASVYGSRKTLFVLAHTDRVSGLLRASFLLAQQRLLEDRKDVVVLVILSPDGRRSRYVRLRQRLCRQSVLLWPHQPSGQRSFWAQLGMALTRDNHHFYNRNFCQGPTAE
Experiment: Antagonist activity at TLR9 in human PBMC assessed as inhibition of ODN2216-induced IFNalpha production
Assay type: tissue-based
Details: not given

SMILES	IC50 [nM]
Cc1cc(-c2ccc(OCC34CCC(N)(CC3)CC4)c(F)c2)c2cnc(N)nn12	3400
Cn1nc(-c2ccc(OCC3C[C@H]4CC[C@@H](C3)N4)c(F)c2)c2cnc(N)nc21 (stereo partly drawn)	1200

Continued, values first:

IC50 [nM]	SMILES
6500	Cn1nc(-c2ccc(OCC3CC4(CNC4)C3)c(F)c2)c2cnc(N)nc21
2200	Cn1nc(-c2ccc(OC[C@H]3CC[C@@H](N)CC3)c(F)c2)c2cnc(N)nc21
1400	Cn1nc(-c2ccc(OC[C@H]3CC[C@H](N)CC3)c(F)c2)c2cnc(N)nc21
3300	Cc1cc(-c2nn(C)c3nc(N)ncc23)cnc1OCC12CCC(N)(CC1)CC2

System: not listed separately
Experiment: AUC in BALB/c mouse at 20 mg/kg, po
Assay type: ADME, organism-based
Design: dose 20 mg/kg
Details: in vivo

AUC [µM·h]	SMILES
28.9	Cc1cc(-c2cnc(OCC34CCC(N)(CC3)CC4)c(C)c2)c2cnn(C)c2n1
2.98	Cc1cc(-c2nn(C)c3nc(N)ncc23)cnc1OCC12CCC(N)(CC1)CC2

System: not listed separately
Experiment: Cmax in BALB/c mouse at 20 mg/kg, po
Assay type: ADME, organism-based
Design: route oral, dose 20 mg/kg
Details: in vivo

Cmax [nM]	SMILES
1400	Cc1cc(-c2cnc(OCC34CCC(N)(CC3)CC4)c(C)c2)c2cnn(C)c2n1
354	Cc1cc(-c2nn(C)c3nc(N)ncc23)cnc1OCC12CCC(N)(CC1)CC2

System: not listed separately
Experiment: Clearance in BALB/c mouse at 5 mg/kg, iv
Assay type: ADME, organism-based
Details: in vivo

clearance [mL/min/kg]	SMILES
44	Cc1cc(-c2cnc(OCC34CCC(N)(CC3)CC4)c(C)c2)c2cnn(C)c2n1
96	Cc1cc(-c2nn(C)c3nc(N)ncc23)cnc1OCC12CCC(N)(CC1)CC2

System: not listed separately
Experiment: Volume of distribution at steady state in BALB/c mouse at 5 mg/kg, iv
Assay type: ADME, organism-based
Details: in vivo, read-out: Vdss

Vd [L/kg]	SMILES
13.8	Cc1cc(-c2cnc(OCC34CCC(N)(CC3)CC4)c(C)c2)c2cnn(C)c2n1
15	Cc1cc(-c2nn(C)c3nc(N)ncc23)cnc1OCC12CCC(N)(CC1)CC2

System: not listed separately
Experiment: Terminal half life in BALB/c mouse at 5 mg/kg, iv
Assay type: ADME, organism-based
Details: in vivo, read-out: beta t1/2 (converted)

half-life [h]	SMILES
4.9	Cc1cc(-c2cnc(OCC34CCC(N)(CC3)CC4)c(C)c2)c2cnn(C)c2n1
4.1	Cc1cc(-c2nn(C)c3nc(N)ncc23)cnc1OCC12CCC(N)(CC1)CC2

System: not listed separately
Experiment: Oral bioavailability in BALB/c mouse at 20 mg/kg
Assay type: ADME, organism-based
Details: in vivo

bioavailability [%]	SMILES
150	Cc1cc(-c2cnc(OCC34CCC(N)(CC3)CC4)c(C)c2)c2cnn(C)c2n1
34	Cc1cc(-c2nn(C)c3nc(N)ncc23)cnc1OCC12CCC(N)(CC1)CC2

System: not listed separately
Experiment: Drug uptake in 129Sv mouse at 5 mg/kg, po measured after 2 hrs
Assay type: ADME, organism-based
Details: in vivo, read-out: Drug uptake

concentration at 2 h [nM]	SMILES
300	Cl.Cn1nc(-c2ccc(OCC34CCC(N)(CC3)CC4)c(F)c2)c2cnc(N)nc21
